Several values for one entry are separate records, joined by “and”; a condition that tells them apart may be missing. Identical values can stand only once. Toxic doses and inconclusive results are not listed. Rule as the data show it: active = T/C of 150% or more; inactive = T/C below 125%.
Test system: L1210 leukemia ip in BDF1 mice, survival T/C
Experiment: NCI In Vivo Anticancer Drug Screen. Data for tumor model L1210 Leukemia (intraperitoneal) in B6D2F1 (BDF1) mice
Conditions: endpoint: mean survival time, higher = longer survival
How it was run: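 Mice bearing the transplanted tumor received compound or vehicle. Survival of the treated group was divided by that of the vehicle-treated control group to give the ratio.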

[1] = dose: 100.0 mg/kg/injection, schedule: Q04DX002 (ip), vehicle: saline
[2] = dose: 200.0 mg/kg/injection, schedule: Q04DX002 (ip), vehicle: saline
[3] = dose: 400.0 mg/kg/injection, schedule: Q04DX002 (ip), vehicle: saline
[4] = dose: 100.0 mg/kg/injection, schedule: Q04DX003 (ip), vehicle: saline with Tween-80
[5] = dose: 200.0 mg/kg/injection, schedule: Q04DX003 (ip), vehicle: saline with Tween-80
[6] = dose: 400.0 mg/kg/injection, schedule: Q04DX003 (ip), vehicle: saline with Tween-80
[7] = dose: 100.0 mg/kg/injection, schedule: Q01DX001 (ip), vehicle: carboxymethylcellulose (CMC)
[8] = dose: 200.0 mg/kg/injection, schedule: Q01DX001 (ip), vehicle: carboxymethylcellulose (CMC)
[9] = dose: 400.0 mg/kg/injection, schedule: Q01DX001 (ip), vehicle: carboxymethylcellulose (CMC)
[10] = dose: 100.0 mg/kg/injection, schedule: Q01DX009 (ip), vehicle: Klucel (hydroxypropylcellulose) (HPC)
[11] = dose: 50.0 mg/kg/injection, schedule: Q01DX009 (ip), vehicle: saline with Tween-80
[12] = dose: 100.0 mg/kg/injection, schedule: Q01DX009 (ip), vehicle: saline with Tween-80
[13] = dose: 100.0 mg/kg/injection, schedule: Q01DX001 (ip), vehicle: saline
[14] = dose: 200.0 mg/kg/injection, schedule: Q01DX001 (ip), vehicle: saline
[15] = dose: 400.0 mg/kg/injection, schedule: Q01DX001 (ip), vehicle: saline
[16] = dose: 100.0 mg/kg/injection, schedule: Q04DX003 (ip), vehicle: Klucel (hydroxypropylcellulose) (HPC)
[17] = dose: 400.0 mg/kg/injection, schedule: Q04DX003 (ip), vehicle: Klucel (hydroxypropylcellulose) (HPC)
[18] = dose: 100.0 mg/kg/injection, schedule: Q04DX003 (ip), vehicle: saline
[19] = dose: 200.0 mg/kg/injection, schedule: Q04DX003 (ip), vehicle: saline
[20] = dose: 400.0 mg/kg/injection, schedule: Q04DX003 (ip), vehicle: saline

Measured: T/C

NCC1OCOC2C(C(=O)O)OCOC12 (stereo unspecified)
inactive: dose: 50.0 mg/kg/injection, schedule: Q04DX002 (ip), vehicle: saline 101 % of control | [1] 96 % of control | [2] 101 % of control | [3] 96 % of control

CCCN(CCC)C(=O)C1C2C=CC(C2)C1C(=O)N(CCC)CCC (stereo unspecified)
inactive: [4] 98 % of control | [5] 111 % of control | [6] 98 % of control

[Cl][Pd][Cl].[NH-]C1CCCC1.[NH-]C1CCCC1
inactive: dose: 6.25 mg/kg/injection, schedule: Q04DX002 (ip), vehicle: saline 102 % of control | dose: 12.5 mg/kg/injection, schedule: Q04DX002 (ip), vehicle: saline 105 % of control | dose: 25.0 mg/kg/injection, schedule: Q04DX002 (ip), vehicle: saline 97 % of control

CCCCCCCC(=O)N(C(C)C)C(C)C
inactive: [7] 108 % of control | dose: 100.0 mg/kg/injection, schedule: Q01DX009 (ip), vehicle: carboxymethylcellulose (CMC) 101 % of control and 103 % of control | dose: 100.0 mg/kg/injection, schedule: Q04DX002 (ip), vehicle: carboxymethylcellulose (CMC) 100 % of control | dose: 100.0 mg/kg/injection, schedule: Q04DX003 (ip), vehicle: carboxymethylcellulose (CMC) 100 % of control | [8] 98 % of control | dose: 200.0 mg/kg/injection, schedule: Q01DX009 (ip), vehicle: carboxymethylcellulose (CMC) 93 % of control and 109 % of control | dose: 200.0 mg/kg/injection, schedule: Q04DX002 (ip), vehicle: carboxymethylcellulose (CMC) 89 % of control | dose: 200.0 mg/kg/injection, schedule: Q04DX003 (ip), vehicle: carboxymethylcellulose (CMC) 102 % of control | [9] 96 % of control | dose: 400.0 mg/kg/injection, schedule: Q01DX009 (ip), vehicle: carboxymethylcellulose (CMC) 103 % of control and 111 % of control | dose: 400.0 mg/kg/injection, schedule: Q04DX002 (ip), vehicle: carboxymethylcellulose (CMC) 96 % of control | dose: 400.0 mg/kg/injection, schedule: Q04DX003 (ip), vehicle: carboxymethylcellulose (CMC) 105 % of control

CCOC(=O)CCCS
inactive: dose: 75.0 mg/kg/injection, schedule: Q01DX001 (ip), vehicle: carboxymethylcellulose (CMC) 93 % of control | dose: 150.0 mg/kg/injection, schedule: Q01DX001 (ip), vehicle: carboxymethylcellulose (CMC) 93 % of control

COC(C(=O)O)c1ccc(Cl)cc1 (stereo unspecified)
inactive: dose: 100.0 mg/kg/injection, schedule: Q04DX002 (ip), vehicle: saline with Tween-80 98 % of control | dose: 200.0 mg/kg/injection, schedule: Q04DX002 (ip), vehicle: saline with Tween-80 91 % of control | dose: 400.0 mg/kg/injection, schedule: Q04DX002 (ip), vehicle: saline with Tween-80 91 % of control

Cc1nc(N)nn1C
inactive: [1] 97 % of control | [2] 110 % of control | [3] 100 % of control

CCNc1nc2c(=O)[nH]c(N)nc2n1C1OC(CO)C(O)C1O (stereo unspecified)
inactive: [7] 107 % of control | [8] 96 % of control | [9] 107 % of control

CCOC(=O)c1[nH]c(C(=O)O)c(CCC(=O)OC)c1C
inactive: dose: 50.0 mg/kg/injection, schedule: Q01DX009 (ip), vehicle: Klucel (hydroxypropylcellulose) (HPC) 110 % of control | dose: 100.0 mg/kg/injection, schedule: Q01DX001 (ip), vehicle: Klucel (hydroxypropylcellulose) (HPC) 93 % of control | [10] 90 % of control | dose: 200.0 mg/kg/injection, schedule: Q01DX001 (ip), vehicle: Klucel (hydroxypropylcellulose) (HPC) 98 % of control | dose: 300.0 mg/kg/injection, schedule: Q01DX009 (ip), vehicle: Klucel (hydroxypropylcellulose) (HPC) 100 % of control | dose: 400.0 mg/kg/injection, schedule: Q01DX001 (ip), vehicle: Klucel (hydroxypropylcellulose) (HPC) 97 % of control

COc1ccc(CC2=[N+](C)CCc3cc(OC)c(OC)cc32)cc1OC
inactive: dose: 25.0 mg/kg/injection, schedule: Q01DX009 (ip), vehicle: other 101 % of control | dose: 50.0 mg/kg/injection, schedule: Q01DX009 (ip), vehicle: other 104 % of control | dose: 100.0 mg/kg/injection, schedule: Q01DX001 (ip), vehicle: other 106 % of control | dose: 100.0 mg/kg/injection, schedule: Q01DX009 (ip), vehicle: other 106 % of control | dose: 400.0 mg/kg/injection, schedule: Q01DX001 (ip), vehicle: other 106 % of control

Cc1cc(NC(=O)Nc2cccc3ccccc23)no1
inactive: [10] 104 % of control | dose: 100.0 mg/kg/injection, schedule: Q04DX002 (ip), vehicle: Klucel (hydroxypropylcellulose) (HPC) 89 % of control | dose: 200.0 mg/kg/injection, schedule: Q01DX009 (ip), vehicle: Klucel (hydroxypropylcellulose) (HPC) 98 % of control | dose: 200.0 mg/kg/injection, schedule: Q04DX002 (ip), vehicle: Klucel (hydroxypropylcellulose) (HPC) 102 % of control | dose: 400.0 mg/kg/injection, schedule: Q01DX009 (ip), vehicle: Klucel (hydroxypropylcellulose) (HPC) 98 % of control | dose: 400.0 mg/kg/injection, schedule: Q04DX002 (ip), vehicle: Klucel (hydroxypropylcellulose) (HPC) 89 % of control

Clc1nnc(-c2ccccc2)c(-c2ccccc2)n1
inactive: dose: 25.0 mg/kg/injection, schedule: Q01DX009 (ip), vehicle: saline with Tween-80 95 % of control | [11] 95 % of control | [12] 97 % of control

O=C(CNC(=O)Nc1cccc(Cl)c1Cl)N/N=C/c1ccccc1O
inactive: [11] 104 % of control | [12] 101 % of control | dose: 200.0 mg/kg/injection, schedule: Q01DX009 (ip), vehicle: saline with Tween-80 96 % of control

OCC(F)(F)F
inactive: dose: 50.0 mg/kg/injection, schedule: Q01DX001 (ip), vehicle: saline 98 % of control | [13] 110 % of control | [14] 102 % of control | [15] 108 % of control

Cc1nsc(N)n1
inactive: dose: 12.5 mg/kg/injection, schedule: Q01DX009 (ip), vehicle: saline 108 % of control | dose: 25.0 mg/kg/injection, schedule: Q01DX009 (ip), vehicle: saline 105 % of control | dose: 50.0 mg/kg/injection, schedule: Q01DX009 (ip), vehicle: saline 100 % of control | [13] 92 % of control | [16] 102 % of control | [14] 100 % of control | dose: 200.0 mg/kg/injection, schedule: Q04DX003 (ip), vehicle: Klucel (hydroxypropylcellulose) (HPC) 113 % of control | [15] 101 % of control | [17] 104 % of control

C1N2CN3CN1CN(C2)C3 (tested in a mixture with another compound)
inactive: [4] 107 % of control | [5] 103 % of control | [6] 102 % of control

C1CCC(C2OCCO2)CC1
inactive: dose: 100.0 mg/kg/injection, schedule: Q01DX009 (ip), vehicle: saline 98 % of control | [18] 97 % of control | dose: 200.0 mg/kg/injection, schedule: Q01DX009 (ip), vehicle: saline 118 % of control | [19] 94 % of control | dose: 400.0 mg/kg/injection, schedule: Q01DX009 (ip), vehicle: saline 88 % of control | [20] 92 % of control

COc1ccc(C(Br)C(Br)C(=O)c2ccc3c(c2)OCO3)cc1OC (stereo unspecified)
inactive: [18] 92 % of control | [19] 89 % of control | [20] 98 % of control

O=[N+]([O-])c1ccc(S)cc1
inactive: dose: 100.0 mg/kg/injection, schedule: Q01DX009 (ip), vehicle: saline sonified 103 % of control | [16] 89 % of control | dose: 200.0 mg/kg/injection, schedule: Q01DX009 (ip), vehicle: saline sonified 91 % of control | dose: 400.0 mg/kg/injection, schedule: Q01DX009 (ip), vehicle: saline sonified 92 % of control | [17] 90 % of control

CCC(C)(C=O)C(C)=O (stereo unspecified)
inactive: [18] 98 % of control | [19] 96 % of control | [20] 88 % of control

CSc1nc(Cl)c2ncn(C3C=CC(O)C(CO)O3)c2n1 (stereo unspecified)
inactive: dose: 100.0 mg/kg/injection, schedule: Q01DX005 (ip), vehicle: saline 95 % of control | dose: 200.0 mg/kg/injection, schedule: Q01DX005 (ip), vehicle: saline 92 % of control

From PubChem BioAssay AID248 (DTP/NCI, 2004)
